Drawing on PubChem BioAssay AID1949 (Southern Research Institute, 2009), this text covers IC50 for 41 compounds.

≈ marks a conversion by molar mass, not a printed value. Records with an inconclusive call do not appear. Calls of active or inactive are those of the source. The rule behind the calls is not given here. Where only a bound is given, the exact number is not on record here.

The subject of this test is M. tuberculosis H37Rv growth inhibition. Nature of the test: Confirmatory growth inhibition assay against Mycobacterium tuberculosis H37Rv, potency (AID 1949).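 Note: bacteria grown 7 days with compound before Alamar blue readout.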

In general, IC50 refers to the point on the concentration scale where inhibition reaches its midpoint. Consider `CCCOc1ccc(Nc2cc(C)nc3ccc(Cl)cc23)cc1`, for which the IC50 is 0.74 µg/mL (≈ 2.26 µM).

Regarding `O=C(CNCCN1CCOCC1)Nc1sc2c(c1C(=O)Nc1ccccc1)CCC2`, the IC50 was 2.12 µg/mL (≈ 4.95 µM).

With `Cc1ccc(-c2cc(C(F)F)n3ncc(C(=O)N4CCc5ccccc5C4)c3n2)cc1`, the IC50 was 38.3 µg/mL (≈ 91.6 µM).

Take `Cc1cccc(OCc2nnc(SCC(=O)NCCc3ccccc3)o2)c1`: the IC50 is 0.46 µg/mL (≈ 1.2 µM).

Turning to `CCCC(=O)N1CCN(c2ccc(NC(=O)c3cc(Br)ccc3Cl)cc2Cl)CC1`, the IC50 was 3.52 µg/mL (≈ 7.05 µM).

`Cc1c(Cl)c(C(F)(F)F)nn1CCCNC(=S)NCc1ccc(Cl)cc1`: the IC50 is 11.2 µg/mL (≈ 26.2 µM).

For the compound `COc1ccc(C(=O)/C=C/Nc2cc(Cl)ccc2O)cc1OC`, the IC50 was 4.6 µg/mL (≈ 13.8 µM).

As to `COc1ccc(Cc2nnc(SCC(=O)NCCc3ccccc3)o2)cc1`, the IC50 was below 0.1 µg/mL.

With `O=C(Nc1ccc([N+](=O)[O-])cc1)c1cc(Br)ccc1O`, the IC50 is 17.9 µg/mL (≈ 53.2 µM).

As to `Cc1nc2ccc(C(=O)OCc3cccc(F)c3)cc2nc1C`, the IC50 is 1.68 µg/mL (≈ 5.41 µM).

As to `O=C(COc1ccc(Br)cc1)Nc1ccccc1F`, the IC50 is 29.5 µg/mL (≈ 91.1 µM).

For `O=[N+]([O-])c1c(Nc2ccccc2)[nH]c2ccccc12`, the IC50 is 9.27 µg/mL (≈ 36.6 µM).

For `CCOC(=O)c1ccc(NC(=O)CC2C(=O)N(Cc3ccccc3)C(=S)N2Cc2cccnc2)cc1` (stereo unspecified), the IC50 was 6.04 µg/mL (≈ 12 µM).

As to `COc1ccccc1-c1c(C)oc2cc(OCC(=O)OCc3ccccc3)ccc2c1=O`, the IC50 is 0.36 µg/mL (≈ 0.836 µM).

For the compound `Cc1ccc([N+](=O)[O-])cc1NC(=O)Nc1cccc(Cl)c1`, the IC50 was 0.21 µg/mL (≈ 0.687 µM).

For the compound `COc1ccc(OC)c(NC(=O)c2cc3cc(Br)ccc3oc2=O)c1`, the IC50 is 0.2 µg/mL (≈ 0.495 µM).

Turning to `CN(C)c1ccc(CNC23CC4CC(CC(C4)C2)C3)cc1`, the IC50 was 1.43 µg/mL (≈ 5.03 µM).

For `CNCc1ccc(OCc2ccc(Cl)cc2Cl)cc1`, the IC50 is 4.85 µg/mL (≈ 16.4 µM).

Consider `CCCCc1ccc2nc(NC(=O)c3cccs3)sc2c1`, for which the IC50 is 6.52 µg/mL (≈ 20.6 µM).

For `COC(=O)CSc1nnc(-c2ccc(Cl)cc2)o1`, the IC50 is below 0.1 µg/mL.

Take `O=C(NC12CC3CC(CC(C3)C1)C2)N1CCN(c2cccc(C(F)(F)F)c2)CC1`: the IC50 is 0.96 µg/mL (≈ 2.36 µM).

On to `CCCNC(=S)NC(=O)c1ccc(C(C)(C)C)cc1`, for which the IC50 was 17 µg/mL (≈ 61 µM).

Take `CCc1cc2c(=O)c(-c3ccc(OC)cc3)coc2cc1OCC(=O)OC`: the IC50 was 1.19 µg/mL (≈ 3.23 µM).

`O=C(O)c1ccc(-n2nnnc2SCc2ccccc2F)cc1`: the IC50 was > 50 µg/mL (inactive).

Turning to `CCC(=O)Oc1ccc(-c2nc3ccccc3c(=O)o2)cc1`, the IC50 is > 50 µg/mL (inactive).

In the case of `COc1cccc(NC(=O)c2c(NC(=O)c3cccnc3)sc3c2CCC3)c1`, the IC50 was 0.1 µg/mL (≈ 0.254 µM).

As for `Fc1ccccc1C1NC(=S)NC2=C1CCc1ccccc12` (stereo unspecified), the IC50 is 9.36 µg/mL (≈ 30.2 µM).

As for `CCOc1ccc(NC(=O)CSc2nnc(-c3ccccc3Cl)o2)cc1`, the IC50 was 3.35 µg/mL (≈ 8.59 µM).

On to `Cc1cccc(C(C)(C)C)c1OCCOCCn1ccnc1`, for which the IC50 was 3.97 µg/mL (≈ 13.1 µM).

Consider `O=c1c2ccccc2nc(/C=C/c2ccc(Br)cc2)n1-c1ccc(O)cc1`, for which the IC50 is > 50 µg/mL (inactive).

Turning to `COc1ccc(C(=O)C(CN2CCOCC2)c2ccccc2)cc1` (stereo unspecified), the IC50 was 2.09 µg/mL (≈ 6.42 µM).

Regarding `O=C(Oc1ccc(F)cc1)c1sc2ccccc2c1Cl`, the IC50 was 3.07 µg/mL (≈ 10 µM).

On to `Cc1cc(=O)oc2c(C)c(OCC(=O)OCc3ccccc3)ccc12`, for which the IC50 was 2.11 µg/mL (≈ 6.24 µM).

Turning to `O=c1c(Cl)c(Cl)cnn1Cc1ccccc1Cl`, the IC50 was 9.65 µg/mL (≈ 33.3 µM).

Regarding `C=CCNCCCCOc1ccc(Cl)cc1C(C)(C)C`, the IC50 was 4.64 µg/mL (≈ 15.7 µM).

In the case of `CC1=CC(C)(C)Nc2ccc(OC(=O)c3cccs3)cc21`, the IC50 is 3.02 µg/mL (≈ 10.1 µM).

In the case of `CCOc1ccc(C(=O)NC(=S)Nc2ccc(N3CCN(C)CC3)c(Cl)c2)cc1Cl`, the IC50 is > 50 µg/mL (inactive).

`O=C(C#Cc1ccccc1)c1ccc([N+](=O)[O-])cc1`: the IC50 is > 50 µg/mL (inactive).

`CCOC(=O)c1ccc(NC(=S)Nc2cccc([N+](=O)[O-])c2)cc1`: the IC50 is 0.23 µg/mL (≈ 0.666 µM).

As for `CCC(C)c1ccc(OCCn2ccnc2)cc1` (stereo unspecified), the IC50 is 2.73 µg/mL (≈ 11.2 µM).

Turning to `Cc1ccc(-c2nc3ccc(Br)cc3c(=O)o2)cc1C`, the IC50 is > 50 µg/mL (inactive).
